For the assay, the system named is LdtMt2 constructs with single amino acid mutations (Tyr318, His336, His352 and Cys354). Type of assay: binding, M. tuberculosis.

Consider three molecules from patent US11084833B2, “Antibacterial agents against D,D- and L,D-transpeptidases” (priority 2016, dated 2021).

Structures are written as SMILES. Entries after “also recorded” stand apart in the source; their conditions may differ. Like-named read-outs stand apart in the source and are kept apart here.

On to `C[C@@H](O)[C@H]1C(=O)N2C(C(=O)O)=C([C@H]3CCCO3)S[C@H]12` [faropenem], for which the “ITC binding to mutants” value is on record as “loss of binding” and the “adduct formation with mutants” value is given as “failed to produce adducts; also recorded: did produce stable adducts”.

On to `C[C@@H](O)[C@H]1C(=O)N2C(C(=O)[O-])=C(SC3Cn4cnc[n+]4C3)[C@H](C)[C@H]12` (some centres unmarked) [biapenem], for which, where the note is “UPLC-MS, any of the mutant proteins”, the “adduct formation with mutants” value is “no adducts could be detected”.

For `C[C@@H](O)[C@H]1C(=O)N2C(C(=O)O)=C(SC3CN(C4=NCCS4)C3)[C@H](C)[C@H]12` [tebipenem], the “ITC binding to mutants” value is given as “loss of binding” and the “adduct formation with mutants” value is recorded as “failed to produce adducts; also recorded: did produce stable adducts”.
